Key:
Human melanocortin (MC5) = target: T1, Human melanocortin (MC5) (Homo sapiens, UniProt P33032); assay: Radioligand binding, human melanocortin MC5 membranes, FlashPlate, [125I]-NDP-αMSH; details: compound at 10 μM; for A5 radioligand binding inhibition: human melanocortin MC5 membranes
T1 construct: purchased Perkin Elmer Biosignal
Procedure, shortened: (§1)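 Cloned human receptor membranes were coated onto FlashPlate wells and incubated with radioligand and compound (added from a 0.5 mM DMSO daughter plate) for 1 hour at room temperature in the dark. Scintillation counting gave percent inhibition, with DMSO defining total and reference ligand defining non-specific binding.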

[1] = target: T2, Human neuropeptide Y (NPY-Y1) (Homo sapiens, UniProt P25929); assay: Radioligand binding, human neuropeptide Y NPY-Y1 membranes, FlashPlate, [125I]-PYY; details: compound at 10 μM
T2 construct: purchased Perkin Elmer Biosignal
T2 sequence (P25929 1-384): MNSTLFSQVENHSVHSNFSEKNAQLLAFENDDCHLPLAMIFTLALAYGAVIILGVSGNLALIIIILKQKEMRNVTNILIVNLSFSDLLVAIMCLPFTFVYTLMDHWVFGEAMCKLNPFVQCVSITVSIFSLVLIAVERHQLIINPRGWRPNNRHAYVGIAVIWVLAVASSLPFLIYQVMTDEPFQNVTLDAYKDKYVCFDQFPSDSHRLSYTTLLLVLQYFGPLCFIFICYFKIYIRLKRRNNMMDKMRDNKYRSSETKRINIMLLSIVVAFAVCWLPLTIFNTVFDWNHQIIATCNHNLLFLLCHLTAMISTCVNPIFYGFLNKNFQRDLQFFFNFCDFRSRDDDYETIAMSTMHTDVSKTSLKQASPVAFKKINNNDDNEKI
Procedure, shortened: as §1

Human κ-Opioid (KOP) = target: T3, Human κ-Opioid (KOP) (Homo sapiens, UniProt P41145); assay: Radioligand binding, human κ-opioid (KOP) membranes, filtration, [3H]-Diprenorphine; details: compound at 10 μM; for A2 radioligand binding inhibition: human κ-opioid (KOP) membranes
T3 construct: purchased Perkin Elmer Biosignal
T3 sequence (P41145 whole entry): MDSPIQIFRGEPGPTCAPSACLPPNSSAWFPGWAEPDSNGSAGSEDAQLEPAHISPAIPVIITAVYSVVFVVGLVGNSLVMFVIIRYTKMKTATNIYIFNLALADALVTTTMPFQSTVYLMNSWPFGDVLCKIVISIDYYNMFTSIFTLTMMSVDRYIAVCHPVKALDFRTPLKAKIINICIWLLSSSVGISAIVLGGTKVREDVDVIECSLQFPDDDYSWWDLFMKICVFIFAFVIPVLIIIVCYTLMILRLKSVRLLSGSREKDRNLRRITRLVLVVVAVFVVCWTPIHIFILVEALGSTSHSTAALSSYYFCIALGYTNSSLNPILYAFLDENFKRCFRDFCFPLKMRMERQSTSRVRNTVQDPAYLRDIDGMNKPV
Procedure, shortened: (§2)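 Filtration binding on cloned human receptor membranes (1 Unit/well), [125I]-Substance P for NK1 and [3H]-Diprenorphine for KOP, 1 h at room temperature. Filters PEI-presoaked, washed with cold 50 mM Tris-HCl pH 7.4, counted by scintillation; percent inhibition calculated, reference ligand defining non-specific binding.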

[2] = target: T4, Human melanin-concentrating hormone (MCH1) (Homo sapiens, UniProt Q99705); assay: Radioligand binding, human melanin-concentrating hormone MCH1 membranes, FlashPlate, [125I]-S36057; details: compound at 10 μM; for A6 radioligand binding inhibition: human MCH1 membranes
T4 construct: purchased Perkin Elmer Biosignal
T4 sequence (Q99705 whole entry): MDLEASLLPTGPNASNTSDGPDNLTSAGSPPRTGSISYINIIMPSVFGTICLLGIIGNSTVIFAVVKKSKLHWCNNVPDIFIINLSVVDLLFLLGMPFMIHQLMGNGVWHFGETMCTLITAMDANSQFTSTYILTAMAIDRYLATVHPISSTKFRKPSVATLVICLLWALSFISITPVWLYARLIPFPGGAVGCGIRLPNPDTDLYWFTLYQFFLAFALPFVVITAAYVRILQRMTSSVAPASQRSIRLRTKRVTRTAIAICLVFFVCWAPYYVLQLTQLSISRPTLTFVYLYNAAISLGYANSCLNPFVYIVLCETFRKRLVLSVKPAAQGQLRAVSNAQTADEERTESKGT
Procedure, shortened: as §1

Human δ-opioid (DOP) = target: T5, Human δ-opioid (DOP) (Homo sapiens, UniProt P41143); assay: Radioligand binding, human δ-opioid (DOP) membranes, FlashPlate, [3H]-Bremazocine; details: compound at 10 μM; for A1 radioligand binding inhibition: human δ-opioid (DOP) membranes
T5 construct: purchased Perkin Elmer Biosignal
T5 sequence (P41143 whole entry): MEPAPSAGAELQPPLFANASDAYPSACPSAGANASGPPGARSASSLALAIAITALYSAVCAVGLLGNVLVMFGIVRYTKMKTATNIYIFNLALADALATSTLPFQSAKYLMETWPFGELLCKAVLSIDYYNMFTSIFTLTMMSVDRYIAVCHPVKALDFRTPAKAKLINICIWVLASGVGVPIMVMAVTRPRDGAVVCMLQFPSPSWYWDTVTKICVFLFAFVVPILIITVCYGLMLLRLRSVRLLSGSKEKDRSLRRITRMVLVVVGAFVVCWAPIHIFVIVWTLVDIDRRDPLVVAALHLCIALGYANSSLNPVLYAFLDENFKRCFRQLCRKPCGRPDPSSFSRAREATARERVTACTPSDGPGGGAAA
Procedure, shortened: as §1

Human neurokinin (NK1) = target: T6, Human neurokinin (NK1) (Homo sapiens, UniProt P25103); assay: Radioligand binding, human neurokinin NK1 membranes, filtration, [125I]-Substance P; details: compound at 10 μM; for A8 radioligand binding inhibition: human neurokinin NK1 membranes
T6 construct: purchased Perkin Elmer Biosignal
T6 sequence (P25103 whole entry): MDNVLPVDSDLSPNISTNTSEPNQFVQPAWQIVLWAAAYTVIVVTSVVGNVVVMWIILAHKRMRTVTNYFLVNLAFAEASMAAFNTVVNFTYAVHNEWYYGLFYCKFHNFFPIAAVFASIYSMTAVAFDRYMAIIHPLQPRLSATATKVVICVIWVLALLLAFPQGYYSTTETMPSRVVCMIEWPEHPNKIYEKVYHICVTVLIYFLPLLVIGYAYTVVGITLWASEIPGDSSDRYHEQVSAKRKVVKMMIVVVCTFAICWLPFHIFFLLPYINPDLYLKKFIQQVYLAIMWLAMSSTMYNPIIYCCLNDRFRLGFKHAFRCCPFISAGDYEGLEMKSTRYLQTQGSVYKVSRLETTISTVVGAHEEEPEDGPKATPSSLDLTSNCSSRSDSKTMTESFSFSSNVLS
Procedure, shortened: as §2

Mouse urotensin (mUR2) = target: T7, Mouse urotensin (mUR2) (Mus musculus, UniProt Q8VIH9); assay: Radioligand binding, mouse urotensin mUR2 membranes, FlashPlate, [125I]-Urotensin II; details: compound at 10 μM; for A11 radioligand binding inhibition: mouse urotensin mUR2 membranes
T7 construct: purchased Perkin Elmer Biosignal
T7 sequence (Q8VIH9 1-385): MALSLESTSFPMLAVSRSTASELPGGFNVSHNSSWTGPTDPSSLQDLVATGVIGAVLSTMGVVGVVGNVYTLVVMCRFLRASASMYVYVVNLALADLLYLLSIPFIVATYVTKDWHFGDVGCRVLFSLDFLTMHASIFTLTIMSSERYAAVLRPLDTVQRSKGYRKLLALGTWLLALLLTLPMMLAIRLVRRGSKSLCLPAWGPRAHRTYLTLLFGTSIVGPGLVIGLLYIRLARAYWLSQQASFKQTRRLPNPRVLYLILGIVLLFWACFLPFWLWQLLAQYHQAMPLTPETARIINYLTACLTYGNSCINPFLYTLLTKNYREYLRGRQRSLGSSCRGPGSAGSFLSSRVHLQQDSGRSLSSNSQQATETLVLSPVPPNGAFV
Procedure, shortened: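 Cloned mouse urotensin (mUR2) receptor membranes from Perkin Elmer Biosignal were immobilized in FlashPlate microplates using a proprietary coating. Each well got 19.5 μl buffer, then 0.5 μl of DMSO, reference ligand, or compound. Adding 5 μl of [125I]-Urotensin II, diluted to 5× final concentration in binding buffer, started binding. Plates were sealed with TopSeal-A and incubated 1 hour at room temperature in the dark. Wells were counted for 30 seconds each on a TopCount after a 60-second delay, and percentage inhibition was calculated.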

Human opioid (ORL1) = target: T8, Human opioid (ORL1) (Homo sapiens, UniProt P41146); assay: Radioligand binding, human opioid ORL1 membranes, FlashPlate, [125I]-Nociceptin; details: compound at 10 μM
T8 construct: purchased Perkin Elmer Biosignal
T8 sequence (P41146 whole entry): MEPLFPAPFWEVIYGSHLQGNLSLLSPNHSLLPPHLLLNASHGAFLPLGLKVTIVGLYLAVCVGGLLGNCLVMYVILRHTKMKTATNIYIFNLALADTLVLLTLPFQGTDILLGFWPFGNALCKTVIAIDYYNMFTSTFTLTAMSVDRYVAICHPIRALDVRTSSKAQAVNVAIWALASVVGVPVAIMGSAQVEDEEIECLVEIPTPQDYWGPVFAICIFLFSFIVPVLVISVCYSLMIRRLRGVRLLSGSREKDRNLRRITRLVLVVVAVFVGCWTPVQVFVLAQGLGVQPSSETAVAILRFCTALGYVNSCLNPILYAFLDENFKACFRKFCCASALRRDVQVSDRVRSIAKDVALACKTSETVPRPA
Procedure, shortened: as §1

Human μ-opioid (MOP) = target: T9, Human μ-opioid (MOP) (Homo sapiens, UniProt P35372); assay: Radioligand binding, human μ-opioid (MOP) membranes, FlashPlate, [3H]-Naloxone; details: compound at 10 μM; for A7 radioligand binding inhibition: human μ-opioid (MOP) membranes
T9 construct: purchased Perkin Elmer Biosignal
T9 sequence (P35372 whole entry): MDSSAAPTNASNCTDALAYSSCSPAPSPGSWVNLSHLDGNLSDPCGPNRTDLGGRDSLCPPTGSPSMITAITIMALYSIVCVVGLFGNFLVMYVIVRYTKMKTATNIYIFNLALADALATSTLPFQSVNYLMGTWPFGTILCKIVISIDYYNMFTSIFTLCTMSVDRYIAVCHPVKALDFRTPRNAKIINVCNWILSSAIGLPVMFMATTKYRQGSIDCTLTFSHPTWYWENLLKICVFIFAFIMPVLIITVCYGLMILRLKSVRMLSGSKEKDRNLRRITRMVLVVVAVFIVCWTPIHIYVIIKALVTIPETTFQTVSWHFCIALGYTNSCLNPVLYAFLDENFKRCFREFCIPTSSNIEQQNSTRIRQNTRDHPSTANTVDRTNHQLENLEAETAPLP
Procedure, shortened: as §1

Human Melanocortin (MC4) = target: T10, Human Melanocortin (MC4) (Homo sapiens, UniProt P32245); assay: Radioligand binding, human melanocortin MC4 membranes, FlashPlate, [125I]-NDP-αMSH; details: compound at 10 μM; for A4 radioligand binding inhibition: human melanocortin MC4 membranes
T10 construct: purchased Perkin Elmer Biosignal
T10 sequence (P32245 whole entry): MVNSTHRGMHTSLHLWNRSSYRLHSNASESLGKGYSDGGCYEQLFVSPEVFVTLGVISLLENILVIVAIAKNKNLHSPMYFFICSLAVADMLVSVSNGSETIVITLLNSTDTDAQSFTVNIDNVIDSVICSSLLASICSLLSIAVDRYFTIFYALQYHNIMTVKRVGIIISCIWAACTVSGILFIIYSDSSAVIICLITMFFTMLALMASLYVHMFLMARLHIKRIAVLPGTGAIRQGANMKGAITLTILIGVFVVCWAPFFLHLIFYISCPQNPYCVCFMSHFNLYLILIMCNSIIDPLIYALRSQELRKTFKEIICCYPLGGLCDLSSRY
Procedure, shortened: as §1

Human Melanocortin (MC3) = target: T11, Human Melanocortin (MC3) (Homo sapiens, UniProt P41968); assay: Radioligand binding, human melanocortin MC3 membranes, FlashPlate, [125I]-NDP-αMSH; details: compound at 10 μM; for A3 radioligand binding inhibition: human melanocortin MC3 membranes
T11 construct: purchased Perkin Elmer Biosignal
T11 sequence (P41968 whole entry): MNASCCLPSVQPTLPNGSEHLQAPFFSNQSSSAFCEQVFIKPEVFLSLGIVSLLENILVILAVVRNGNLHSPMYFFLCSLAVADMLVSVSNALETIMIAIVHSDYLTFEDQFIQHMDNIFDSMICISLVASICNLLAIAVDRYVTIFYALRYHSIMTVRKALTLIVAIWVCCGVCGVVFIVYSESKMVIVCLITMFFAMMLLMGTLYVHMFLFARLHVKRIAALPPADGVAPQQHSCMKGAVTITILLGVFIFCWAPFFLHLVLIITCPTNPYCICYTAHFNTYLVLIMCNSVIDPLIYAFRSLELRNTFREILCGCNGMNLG
Procedure, shortened: as §1

T1 sequence (P33032 whole entry): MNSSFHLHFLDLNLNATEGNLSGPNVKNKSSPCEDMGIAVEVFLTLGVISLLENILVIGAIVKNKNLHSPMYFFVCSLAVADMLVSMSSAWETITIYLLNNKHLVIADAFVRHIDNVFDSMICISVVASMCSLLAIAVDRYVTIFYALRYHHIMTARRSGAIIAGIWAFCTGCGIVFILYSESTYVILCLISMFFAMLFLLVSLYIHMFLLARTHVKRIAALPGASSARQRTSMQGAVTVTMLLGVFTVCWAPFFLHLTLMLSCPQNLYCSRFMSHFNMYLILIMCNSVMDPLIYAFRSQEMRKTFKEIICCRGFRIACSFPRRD

| SMILES | A5 radioligand binding inhibition (Human melanocortin (MC5)) | A9 radioligand binding inhibition ([1]; human NPY-Y1 membranes) | A2 radioligand binding inhibition (Human κ-Opioid (KOP)) | A6 radioligand binding inhibition [2] | A1 radioligand binding inhibition (Human δ-opioid (DOP)) | A8 radioligand binding inhibition (Human neurokinin (NK1)) | A11 radioligand binding inhibition (Mouse urotensin (mUR2)) | A10 radioligand binding inhibition (Human opioid (ORL1); human ORL1 membranes) | A7 radioligand binding inhibition (Human μ-opioid (MOP)) | A4 radioligand binding inhibition (Human Melanocortin (MC4)) | A3 radioligand binding inhibition (Human Melanocortin (MC3)) | other results |
| --- | --- | --- | --- | --- | --- | --- | --- | --- | --- | --- | --- | --- |
| CO[C@H]1[C@H](O)[C@@H](COCc2ccc(-c3ccccc3)cc2)OC(OCc2ccc(-c3ccccc3)cc2)[C@@H]1NC(=O)CCCNC(=N)N (stereo partly shown) [compound 54] | + (“+” indicates greater than 50% inhibition at 10 μM) | − (“−” indicates less than 50% inhibition at 10 μM) | − (“−” indicates less than 50% inhibition at 10 μM) | + (“+” indicates greater than 50% inhibition at 10 μM) | − (“−” indicates less than 50% inhibition at 10 μM) | + (“+” indicates greater than 50% inhibition at 10 μM) | − (“−” indicates less than 50% inhibition at 10 μM) | + (“+” indicates greater than 50% inhibition at 10 μM) | + (“+” indicates greater than 50% inhibition at 10 μM) | + (“+” indicates greater than 50% inhibition at 10 μM) | + (“+” indicates greater than 50% inhibition at 10 μM) |  |
| COC[C@H]1OC(OCc2ccc(-c3ccccc3)cc2)[C@H](NC(=O)CCCNC(=N)N)[C@@H](OCc2ccc3ccccc3c2)[C@@H]1O (stereo partly shown) [compound 6] | + (“+” indicates greater than 50% inhibition at 10 μM) | − (“−” indicates less than 50% inhibition at 10 μM) | + (“+” indicates greater than 50% inhibition at 10 μM) | + (“+” indicates greater than 50% inhibition at 10 μM) | − (“−” indicates less than 50% inhibition at 10 μM) | + (“+” indicates greater than 50% inhibition at 10 μM) | − (“−” indicates less than 50% inhibition at 10 μM) | − (“−” indicates less than 50% inhibition at 10 μM) | + (“+” indicates greater than 50% inhibition at 10 μM) | − (“−” indicates less than 50% inhibition at 10 μM) | − (“−” indicates less than 50% inhibition at 10 μM) |  |
| NCCC(=O)NC1C(OCc2ccccc2)OC(COCc2ccc(Cl)cc2)C(O)C1OCc1ccc2ccccc2c1 (stereo not shown) [compound 368] |  |  |  |  |  |  |  |  |  |  |  | A5: inhibition of radioligand binding, human melanocortin (MC5) (Human melanocortin (MC5); [125I]-NDP-αMSH): + (“+” indicates greater than 50% inhibition at 10 μM); A9: inhibition of radioligand binding, human neuropeptide Y (NPY-Y1) ([1]; [125I]-PYY): − (“−” indicates less than 50% inhibition at 10 μM); A2: inhibition of radioligand binding, human κ-opioid (KOP) (Human κ-Opioid (KOP); [3H]-Diprenorphine): − (“−” indicates less than 50% inhibition at 10 μM); A6: inhibition of radioligand binding, human melanin-concentrating hormone (MCH1) ([2]; [125I]-S36057): − (“−” indicates less than 50% inhibition at 10 μM); A1: inhibition of radioligand binding, human δ-opioid (DOP) (Human δ-opioid (DOP); [3H]-Bremazocine): − (“−” indicates less than 50% inhibition at 10 μM); A8: inhibition of radioligand binding, human neurokinin (NK1) (Human neurokinin (NK1); [125I]-Substance P): + (“+” indicates greater than 50% inhibition at 10 μM); A11: inhibition of radioligand binding, mouse urotensin (mUR2) (Mouse urotensin (mUR2); [125I]-Urotensin II): − (“−” indicates less than 50% inhibition at 10 μM); A10: inhibition of radioligand binding, human opioid (ORL1) (Human opioid (ORL1); [125I]-Nociceptin): − (“−” indicates less than 50% inhibition at 10 μM); A7: inhibition of radioligand binding, human μ-opioid (MOP) (Human μ-opioid (MOP); [3H]-Naloxone): − (“−” indicates less than 50% inhibition at 10 μM); A4: inhibition of radioligand binding, human melanocortin (MC4) (Human Melanocortin (MC4); [125I]-NDP-αMSH): + (“+” indicates greater than 50% inhibition at 10 μM); A3: inhibition of radioligand binding, human melanocortin (MC3) (Human Melanocortin (MC3); [125I]-NDP-αMSH): + (“+” indicates greater than 50% inhibition at 10 μM) |
| NCCC(=O)N[C@H]1C(OCc2ccc3ccccc3c2)O[C@H](COCc2ccc3ccccc3c2)[C@@H](O)[C@@H]1OCc1ccccc1 (stereo partly shown) [compound 448] |  |  |  |  |  |  |  |  |  |  |  | A5: inhibition of radioligand binding (Human melanocortin (MC5); [125I]-NDP-αMSH, human MC5 membranes): + (“+” indicates greater than 50% inhibition at 10 μM); A9: inhibition of radioligand binding ([1]; [125I]-PYY, human NPY-Y1 membranes): − (“−” indicates less than 50% inhibition at 10 μM); A2: inhibition of radioligand binding (Human κ-Opioid (KOP); [3H]-Diprenorphine, human KOP membranes): − (“−” indicates less than 50% inhibition at 10 μM); A6: inhibition of radioligand binding ([2]; [125I]-S36057, human MCH1 membranes, 10 µM): − (“−” indicates less than 50% inhibition at 10 μM); A1: inhibition of radioligand binding (Human δ-opioid (DOP); [3H]-Bremazocine, human DOP membranes): − (“−” indicates less than 50% inhibition at 10 μM); A8: inhibition of radioligand binding (Human neurokinin (NK1); [125I]-Substance P, human NK1 membranes): + (“+” indicates greater than 50% inhibition at 10 μM); A11: inhibition of radioligand binding (Mouse urotensin (mUR2); [125I]-Urotensin II, mouse mUR2 membranes): − (“−” indicates less than 50% inhibition at 10 μM); A10: inhibition of radioligand binding (Human opioid (ORL1); [125I]-Nociceptin, human ORL1 membranes, 10 µM): − (“−” indicates less than 50% inhibition at 10 μM); A7: inhibition of radioligand binding (Human μ-opioid (MOP); [3H]-Naloxone, human MOP membranes): − (“−” indicates less than 50% inhibition at 10 μM); A4: inhibition of radioligand binding (Human Melanocortin (MC4); [125I]-NDP-αMSH, human MC4 membranes): + (“+” indicates greater than 50% inhibition at 10 μM); A3: inhibition of radioligand binding (Human Melanocortin (MC3); [125I]-NDP-αMSH, human MC3 membranes, 10 µM): − (“−” indicates less than 50% inhibition at 10 μM) |
| COC[C@H]1OC(OCc2ccc(Cl)cc2)[C@H](NC(=O)CCCNC(=N)N)[C@@H](OCc2ccc(Cl)cc2)[C@@H]1O (stereo partly shown) [compound 39] | − (“−” indicates less than 50% inhibition at 10 μM) | − (“−” indicates less than 50% inhibition at 10 μM) | − (“−” indicates less than 50% inhibition at 10 μM) | + (“+” indicates greater than 50% inhibition at 10 μM) | − (“−” indicates less than 50% inhibition at 10 μM) | + (“+” indicates greater than 50% inhibition at 10 μM) | − (“−” indicates less than 50% inhibition at 10 μM) | − (“−” indicates less than 50% inhibition at 10 μM) | − (“−” indicates less than 50% inhibition at 10 μM) | − (“−” indicates less than 50% inhibition at 10 μM) | − (“−” indicates less than 50% inhibition at 10 μM) |  |

— patent US20080009418A1, “Selective Inhibitors” (Alchemia LTD., priority 2004, published 2008)
